Tests used:
PBP2 = conditions: 2 mM EDTA
PBP2WT = PBP2WT (Clostridioides difficile, UniProt A0A9R0CDX1); assay: biochemical; assay type: binding
PBP2D515N = target: T1, PBP2D515N (Clostridioides difficile, UniProt A0A9R0CDX1, D515N); assay: biochemical; assay type: binding
T1 sequence (A0A9R0CDX1 36-962 D515N): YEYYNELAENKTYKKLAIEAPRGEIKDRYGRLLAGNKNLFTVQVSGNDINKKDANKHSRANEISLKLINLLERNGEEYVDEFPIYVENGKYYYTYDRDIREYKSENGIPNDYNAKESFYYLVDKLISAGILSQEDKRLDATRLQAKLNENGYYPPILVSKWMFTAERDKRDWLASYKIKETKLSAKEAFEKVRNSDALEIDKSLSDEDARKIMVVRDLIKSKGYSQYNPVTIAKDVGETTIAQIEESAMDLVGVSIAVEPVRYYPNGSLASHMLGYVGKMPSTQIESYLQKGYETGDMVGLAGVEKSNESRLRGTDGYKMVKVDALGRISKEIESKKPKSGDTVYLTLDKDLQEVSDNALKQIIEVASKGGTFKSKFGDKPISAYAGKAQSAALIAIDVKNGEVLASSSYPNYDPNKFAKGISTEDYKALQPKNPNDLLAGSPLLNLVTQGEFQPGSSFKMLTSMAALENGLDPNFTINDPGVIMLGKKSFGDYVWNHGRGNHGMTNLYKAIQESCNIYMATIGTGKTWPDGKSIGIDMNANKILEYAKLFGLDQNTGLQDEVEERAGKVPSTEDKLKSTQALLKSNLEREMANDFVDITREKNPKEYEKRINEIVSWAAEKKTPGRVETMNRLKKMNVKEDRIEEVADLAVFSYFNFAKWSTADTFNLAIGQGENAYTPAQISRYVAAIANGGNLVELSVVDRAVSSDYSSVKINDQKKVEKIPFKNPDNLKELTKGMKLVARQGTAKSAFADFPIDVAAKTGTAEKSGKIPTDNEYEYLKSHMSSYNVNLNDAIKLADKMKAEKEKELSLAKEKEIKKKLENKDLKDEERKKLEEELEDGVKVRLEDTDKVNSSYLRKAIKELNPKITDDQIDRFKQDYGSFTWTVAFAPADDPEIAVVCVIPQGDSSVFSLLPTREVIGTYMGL

C. difficile = system: C. difficile; parameters: method as in PMID 29533126; conditions: cited from earlier work

## O=C(O)CN(CCN(CC(=O)O)CC(=O)O)CC(=O)O [EDTA]
PBP2
  PBP2 activity: not affected

## Cc1cc(C)n2c1C=C1C=CC(CCC(=O)Nc3ccc(OCC(=O)N[C@@H]4C(=O)N5[C@@H]4SC(C)(C)[C@@H]5C(=O)O)cc3)=[N+]1[B-]2(F)F [bocillin]
PBP2WT
  Kd: 2.95 ± 0.72 µM
PBP2D515N
  Kd: 16.7 ± 2.72 µM

B1: calprotectin: a protein secreted by the immune system in response to intestinal inflammation; chelator of divalent cations such as Ca2+ and Zn2+ (protein, UniProt P05109 1-93; P06702 1-114, looked up)
Protein S100-A8: MLTELEKALNSIIDVYHKYSLIKGNFHAVYRDDLKKLLETECPQYIRKKGADVWFKELDINTDGAVNFQEFLILVIKMGVAAHKKSHEESHKE
Protein S100-A9: MTCKMSQLERNIETIINTFHQYSVKLGHPDTLNQGEFKELVRKDLQNFLKKENKNEKVIEHIMEDLDTNADKQLSFEEFIMLMARLTWASHEKMHEGDEGPGHHHKPGLGEGTP
C. difficile
  C. difficile growth (in words): inhibits C. difficile growth

From article PMC9334274, “A unique class of Zn^2+-binding serine-based PBPs underlies cephalosporin resistance and sporogenesis in Clostridioides difficile” (Nature Communications, 2022)
